Source: ChEMBL document CHEMBL1201862, “PubChem BioAssay data set” (2004)
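Following 48 hours of exposure in 96-well plates, responses at five concentrations were used to interpolate endpoints linearly. At the GI50, growth is halved.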 Calls of active or inactive are those of the source. Cut-off read from the data, not from the text of the source: active = GI50 up to about 1.1 µM and inactive = higher.

Columns and labels:
Experiment in all cases: NCI-60 cell line screen, 48 h
786-0 = tested on: 786-0
A498 = tested on: A498
A549 = tested on: A549
ACHN = tested on: ACHN
BT-549 = tested on: BT-549
CAKI-1 = tested on: CAKI-1
CCRF-CEM = tested on: CCRF-CEM
COLO 205 = tested on: COLO 205
DU-145 = tested on: DU-145
EKVX = tested on: EKVX
HCT-116 = tested on: HCT-116
HCT-15 = tested on: HCT-15
HL-60 = tested on: HL-60
HOP-62 = tested on: HOP-62
HOP-92 = tested on: HOP-92
HT-29 = tested on: HT-29
Hs-578T = tested on: Hs-578T
IGROV-1 = tested on: IGROV-1
K562 = tested on: K562
KM12 = tested on: KM12
LOX IMVI = tested on: LOX IMVI
M14 = tested on: M14
MCF7 = tested on: MCF7
MDA-MB-231 = tested on: MDA-MB-231
MDA-MB-435 = tested on: MDA-MB-435
MDA-N = tested on: MDA-N
MOLT-4 = tested on: MOLT-4
Malme-3M = tested on: Malme-3M
NCI-H226 = tested on: NCI-H226
NCI-H23 = tested on: NCI-H23
NCI-H460 = tested on: NCI-H460
NCI-H522 = tested on: NCI-H522
NCI/ADR-RES = tested on: NCI/ADR-RES
OVCAR-3 = tested on: OVCAR-3
OVCAR-4 = tested on: OVCAR-4
OVCAR-5 = tested on: OVCAR-5
OVCAR-8 = tested on: OVCAR-8
PC-3 = tested on: PC-3
RPMI-8226 = tested on: RPMI-8226
RXF 393 = tested on: RXF 393
SF-268 = tested on: SF-268
SF-295 = tested on: SF-295
SF-539 = tested on: SF-539
SK-MEL-28 = tested on: SK-MEL-28
SK-MEL-2 = tested on: SK-MEL-2
SK-MEL-5 = tested on: SK-MEL-5
SK-OV-3 = tested on: SK-OV-3
SN12C = tested on: SN12C
SNB-19 = tested on: SNB-19
SNB-75 = tested on: SNB-75
SR = tested on: SR
SW-620 = tested on: SW-620
T47D = tested on: T47D
TK-10 = tested on: TK-10
U-251 = tested on: U-251
UACC-257 = tested on: UACC-257
UACC-62 = tested on: UACC-62
UO-31 = tested on: UO-31

[O-][S@@+]1c2ccc3ccccc3c2N[C@@H]2[C@H]1[C@H]1C=C[C@@H]2C1
GI50 (786-0): 64.3 µM (inactive)
GI50 (A498): 71.6 µM (inactive)
GI50 (A549): 57.5 µM (inactive)
GI50 (ACHN): > 100 µM (inactive)
GI50 (BT-549): 32.4 µM (inactive)
GI50 (CAKI-1): > 100 µM (inactive)
GI50 (CCRF-CEM): 23.6 µM (inactive)
GI50 (COLO 205): 46.6 µM (inactive)
GI50 (DU-145): 46.9 µM (inactive)
GI50 (EKVX): > 100 µM (inactive)
GI50 (HCT-116): 39.5 µM (inactive)
GI50 (HCT-15): 33.1 µM
GI50 (HL-60): 24 µM (inactive)
GI50 (HOP-62): 59.4 µM (inactive)
GI50 (HOP-92): 38.4 µM (inactive)
GI50 (HT-29): 34.9 µM (inactive)
GI50 (Hs-578T): 30.1 µM (inactive)
GI50 (IGROV-1): 21.2 µM (inactive)
GI50 (K562): 37.1 µM (inactive)
GI50 (KM12): 31.1 µM (inactive)
GI50 (LOX IMVI): 31.6 µM (inactive)
GI50 (M14): 48.4 µM (inactive)
GI50 (MCF7): 26.1 µM (inactive)
GI50 (MDA-MB-231): 32.3 µM (inactive)
GI50 (MDA-MB-435): 24.9 µM (inactive)
GI50 (MDA-N): 20.8 µM (inactive)
GI50 (MOLT-4): 26.6 µM (inactive)
GI50 (Malme-3M): 58.9 µM (inactive)
GI50 (NCI-H226): 50.8 µM (inactive)
GI50 (NCI-H23): 35.3 µM (inactive)
GI50 (NCI-H460): 37.6 µM (inactive)
GI50 (NCI-H522): 21.5 µM (inactive)
GI50 (NCI/ADR-RES): 25.8 µM (inactive)
GI50 (OVCAR-3): 11.9 µM (inactive)
GI50 (OVCAR-4): 23.9 µM (inactive)
GI50 (OVCAR-5): > 100 µM (inactive)
GI50 (OVCAR-8): 35.8 µM (inactive)
GI50 (PC-3): 32.4 µM (inactive)
GI50 (RPMI-8226): 31.6 µM (inactive)
GI50 (RXF 393): 19.5 µM (inactive)
GI50 (SF-268): 61 µM (inactive)
GI50 (SF-295): 40.5 µM (inactive)
GI50 (SF-539): > 100 µM (inactive)
GI50 (SK-MEL-28): 98.6 µM (inactive)
GI50 (SK-MEL-2): 37.4 µM (inactive)
GI50 (SK-MEL-5): 28 µM (inactive)
GI50 (SK-OV-3): 42.1 µM (inactive)
GI50 (SN12C): 53.7 µM (inactive)
GI50 (SNB-19): > 100 µM (inactive)
GI50 (SNB-75): 16.9 µM (inactive)
GI50 (SR): 30 µM (inactive)
GI50 (SW-620): 34 µM (inactive)
GI50 (T47D): 16.5 µM (inactive)
GI50 (TK-10): 51.1 µM (inactive)
GI50 (U-251): 76.4 µM (inactive)
GI50 (UACC-257): 56.6 µM (inactive)
GI50 (UACC-62): 84.1 µM (inactive)
GI50 (UO-31): 64.4 µM (inactive)
